Source: ChEMBL document CHEMBL4342467, “Discovery of a Novel Dual-Target Inhibitor of ERK1 and ERK5 That Induces Regulated Cell Death to Overcome Compensatory Mechanism in Specific Tumor Types” (J Med Chem, 2020)

How the values were obtained:
[1] = target: Mitogen-activated protein kinase 3 (Homo sapiens) (UniProt P27361); assay: Inhibition of ERK1 (unknown origin) at 1 uM by Z'-Lyte assay relative to control
[2] = target: Mitogen-activated protein kinase 1 (Homo sapiens) (UniProt P28482); assay: Inhibition of ERK2 (unknown origin) at 1 uM by Z'-Lyte assay relative to control
Chain of Mitogen-activated protein kinase 1 (Homo sapiens) (P28482 whole entry): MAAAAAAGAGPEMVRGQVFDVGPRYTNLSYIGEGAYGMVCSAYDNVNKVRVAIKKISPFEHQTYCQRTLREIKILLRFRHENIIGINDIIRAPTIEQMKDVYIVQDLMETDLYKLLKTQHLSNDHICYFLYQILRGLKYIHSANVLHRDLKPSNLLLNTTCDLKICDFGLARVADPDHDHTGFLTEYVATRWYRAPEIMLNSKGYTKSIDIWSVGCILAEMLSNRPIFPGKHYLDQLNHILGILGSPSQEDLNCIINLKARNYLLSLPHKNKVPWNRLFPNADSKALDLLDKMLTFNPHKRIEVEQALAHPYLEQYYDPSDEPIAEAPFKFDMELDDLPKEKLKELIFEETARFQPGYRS

[3] = target: Mitogen-activated protein kinase 7 (Homo sapiens) (UniProt Q13164); assay: Inhibition of ERK5 (unknown origin) at 1 uM by Z'-Lyte assay relative to control
Chain of Mitogen-activated protein kinase 7 (Homo sapiens) (Q13164 2-816 limits assumed): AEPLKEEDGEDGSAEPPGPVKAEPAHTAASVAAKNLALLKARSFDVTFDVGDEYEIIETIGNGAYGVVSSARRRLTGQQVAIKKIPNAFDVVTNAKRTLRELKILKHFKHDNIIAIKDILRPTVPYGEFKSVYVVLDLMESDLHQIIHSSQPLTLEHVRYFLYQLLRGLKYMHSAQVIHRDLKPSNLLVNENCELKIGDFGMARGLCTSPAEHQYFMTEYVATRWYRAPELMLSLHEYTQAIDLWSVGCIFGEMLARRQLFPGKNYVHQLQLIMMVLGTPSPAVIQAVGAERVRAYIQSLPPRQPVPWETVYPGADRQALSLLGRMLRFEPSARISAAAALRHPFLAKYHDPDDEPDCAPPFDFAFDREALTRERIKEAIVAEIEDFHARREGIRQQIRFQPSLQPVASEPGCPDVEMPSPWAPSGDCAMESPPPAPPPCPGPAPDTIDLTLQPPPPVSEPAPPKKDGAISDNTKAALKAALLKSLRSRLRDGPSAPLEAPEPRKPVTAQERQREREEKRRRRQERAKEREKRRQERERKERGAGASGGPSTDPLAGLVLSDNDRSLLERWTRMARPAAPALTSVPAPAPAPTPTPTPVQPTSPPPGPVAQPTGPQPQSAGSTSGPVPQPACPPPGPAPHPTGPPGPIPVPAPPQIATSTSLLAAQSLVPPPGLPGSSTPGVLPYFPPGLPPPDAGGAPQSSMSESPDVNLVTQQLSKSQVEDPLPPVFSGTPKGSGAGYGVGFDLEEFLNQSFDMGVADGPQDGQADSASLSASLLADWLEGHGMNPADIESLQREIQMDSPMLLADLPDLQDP

HL-60 = assay: Antiproliferative activity against human HL60 cells assessed as reduction in cell viability measured after 24 hrs; type: functional, cell-based; settings: HL-60, 24 h
MKN-74 = assay: Antiproliferative activity against human MKN74 cells assessed as reduction in cell viability measured after 24 hrs; type: functional, cell-based; settings: MKN-74, 24 h
HeLa = assay: Antiproliferative activity against human HeLa cells assessed as reduction in cell viability measured after 24 hrs; type: functional, cell-based

Chain of Mitogen-activated protein kinase 3 (Homo sapiens) (P27361 whole entry): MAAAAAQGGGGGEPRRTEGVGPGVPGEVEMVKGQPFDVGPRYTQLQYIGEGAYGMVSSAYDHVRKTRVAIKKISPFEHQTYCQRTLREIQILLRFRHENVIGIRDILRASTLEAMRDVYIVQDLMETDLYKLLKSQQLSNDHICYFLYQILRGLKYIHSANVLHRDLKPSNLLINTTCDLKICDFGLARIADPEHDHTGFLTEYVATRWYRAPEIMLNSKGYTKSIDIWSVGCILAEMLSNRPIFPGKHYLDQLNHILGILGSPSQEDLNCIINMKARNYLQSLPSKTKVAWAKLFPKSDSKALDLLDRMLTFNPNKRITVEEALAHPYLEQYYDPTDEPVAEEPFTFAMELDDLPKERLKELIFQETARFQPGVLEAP

SMILES | inhibition [1] [%] | inhibition [2] [%] | inhibition [3] [%] | IC50 (HL-60) [µM] | IC50 (MKN-74) [µM] | IC50 (HeLa) [µM]
NC(=O)c1c(NC(=O)c2ccccc2Cl)sc2c1CCN(C(=O)Nc1cc(C(F)(F)F)cc(C(F)(F)F)c1)C2 | 91 | 89.2 | 80.3 | 26.7 | 24.3 | 38.6
CSc1ccccc1C(=O)Nc1sc2c(c1C(N)=O)CCN(C(=S)Nc1ccccc1Cl)C2 | 67.2 | 63.4 | 49.1 | 30.5 | 6.55 | 34.7
Cc1ccccc1NC(=S)N1CCc2c(sc(NC(=O)c3ccccc3Cl)c2C(N)=O)C1 | 68.4 | 72.8 | 59.3 | 22.6 | 11.7 | > 50
Cc1ccc(C(=O)Nc2sc3c(c2C(N)=O)CCN(C(=S)Nc2ccccc2Cl)C3)cc1 | 83.2 | 82.8 | 50.4 | 8.43 | 11.3 | 26.2
NC(=O)c1c(NC(=O)c2ccccc2F)sc2c1CCN(Cc1cccc(Cl)c1)C2 | 49.3 | 48.8 | 42.5 | 19.8 | 23.3 | 49.5
NC(=O)c1c(NC(=O)c2ccccc2Cl)sc2c1CCN(Cc1ccc(Cl)cc1)C2 | 47.4 | 55.4 | 47 | 22.5 | 18.7 | > 50
N#Cc1ccccc1CN1CCc2c(sc(NC(=O)c3ccccc3Cl)c2C(N)=O)C1 | 55.8 | 42.1 | 44.3 | 10.4 | 9.5 | > 50
NC(=O)c1c(NC(=O)c2ccccc2Br)sc2c1CCN(C(=S)Nc1ccccc1F)C2 | 70.1 | 68.7 | 65.7 | > 50 | > 50 | > 50
NC(=O)c1c(NC(=O)c2ccc(C(F)(F)F)cc2)sc2c1CCN(Cc1ccccc1F)C2 | 72.2 | 76.8 | 56.8 | > 50 | 26.9 | > 50
NC(=O)c1c(NC(=O)c2ccccc2Cl)sc2c1CCN(C(=S)Nc1cc(C(F)(F)F)cc(C(F)(F)F)c1)C2 | 89.3 | 88.8 | 77.4 | 6.5 | 15 | 48.9
NC(=O)c1c(NC(=O)c2ccccc2)sc2c1CCN(C(=S)Nc1ccccc1Cl)C2 | 73.8 | 77.5 | 58.9 | 13.8 | 11.8 | > 50
Cc1ccccc1C(=O)Nc1sc2c(c1C(N)=O)CCN(C(=S)Nc1ccccc1C(F)(F)F)C2 | 72 | 76.9 | 60.1 | 23.2 | 17.4 | > 50
NC(=O)c1c(NC(=O)c2ccc(C(F)(F)F)cc2)sc2c1CCN(C(=S)Nc1ccc(C(F)(F)F)cc1)C2 | 82.5 | 79.7 | 57.9 | 5.52 | 12.2 | > 50
NC(=O)c1c(NC(=O)c2ccc(C(F)(F)F)cc2)sc2c1CCN(C(=O)Nc1ccccc1Cl)C2 | 78.3 | 77.6 | 62.2 | > 50 | 43.9 | > 50
NC(=O)c1c(NC(=O)c2ccccc2Cl)sc2c1CCN(Cc1c(Cl)cccc1Cl)C2 | 57.8 | 78.1 | 61.9 | 4.85 | 4.74 | 28.8
NC(=O)c1c(NC(=O)c2ccccc2Br)sc2c1CCN(C(=S)Nc1ccccc1Cl)C2 | 87.7 | 89.7 | 80.5 | 14.6 | 12.9 | 46.9
NC(=O)c1c(NC(=O)c2ccccc2I)sc2c1CCN(C(=S)Nc1ccccc1Br)C2 | 82 | 80 | 85.5 | 18.9 | 22.4 | > 50
NC(=O)c1c(NC(=O)c2ccc(C(F)(F)F)cc2)sc2c1CCN(Cc1c(Cl)cccc1Cl)C2 | 37.3 | 35.6 | 38.7 | 10.6 | 8.53 | > 50
Cc1ccccc1CN1CCc2c(sc(NC(=O)c3ccccc3Cl)c2C(N)=O)C1 | 60.6 | 53.4 | 55.3 | > 50 | > 50 | > 50
